Where two headings read alike, the source gives them in different places.
Molecular target: human CB2R (Homo sapiens, UniProt P34972)
Test: CB2R mediated modulation of cAMP synthesis
Format: cell-based
In short: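 cAMP measured with the DiscoverX-XS kit after 30 min, 37° C. compound exposure of human CB2R-expressing CHO cells stimulated by 10 uM forskolin (1 mM IBMX, 0.25% BSA).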

[1] = CHO cells expressing human CB2R, inhibition of forskolin-stimulated cAMP synthesis, mean, read-out: CB2 CAMP @ EC50 nM (mean)

Sequence of human CB2R (P34972 whole entry): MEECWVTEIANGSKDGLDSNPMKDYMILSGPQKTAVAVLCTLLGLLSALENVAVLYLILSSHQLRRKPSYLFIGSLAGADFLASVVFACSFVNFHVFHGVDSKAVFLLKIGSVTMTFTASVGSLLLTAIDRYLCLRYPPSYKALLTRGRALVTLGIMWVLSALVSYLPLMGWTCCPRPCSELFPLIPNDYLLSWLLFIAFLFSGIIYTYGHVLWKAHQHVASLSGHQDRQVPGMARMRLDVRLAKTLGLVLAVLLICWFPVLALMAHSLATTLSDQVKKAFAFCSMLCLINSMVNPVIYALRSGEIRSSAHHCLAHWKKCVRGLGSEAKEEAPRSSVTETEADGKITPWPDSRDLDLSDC

SMILES | EC50 [nM] | EC50 [1] [nM]
COc1ccc(N2C(=O)CC[C@H]2C(=O)Nc2cc(C(C)(C)C)no2)nc1 [(S)-1-(5-Methoxy-pyridin-2-yl)-5-oxo-pyrrolidine-2-carboxylic acid (3-tert-butyl-isoxazol-5-yl)-amide] | 22.1 | –
Cc1ccc(N2C(=O)CC[C@H]2C(=O)Nc2cc(C(C)(C)C)no2)nc1 [(S)-1-(5-Methyl-pyridin-2-yl)-5-oxo-pyrrolidine-2-carboxylic acid (3-tert-butyl-isoxazol-5-yl)-amide] | 15.4 | –
CC(C)(C)c1cc(NC(=O)[C@@H]2CCCN2c2ccc(C(F)(F)F)cn2)on1 [(S)-1-(5-Trifluoromethyl-pyridin-2-yl)-pyrrolidine-2-carboxylic acid (3-tert-butyl-isoxazol-5-yl)-amide] | 0.023 | –
CC(C)(C)c1csc(NC(=O)[C@@H]2CCCN2c2ccc(C(F)(F)F)cn2)n1 [(S)-1-(5-Trifluoromethyl-pyridin-2-yl)-pyrrolidine-2-carboxylic acid (4-tert-butyl-thiazol-2-yl)-amide] | 8.56 | –
CC(C)(C)c1cc(NC(=O)[C@@H]2CCC(=O)N2c2ccc(C(F)(F)F)c(F)n2)on1 [(S)-1-(6-Fluoro-5-trifluoromethyl-pyridin-2-yl)-5-oxo-pyrrolidine-2-carboxylic acid (3-tert-butyl-isoxazol-5-yl)-amide] | 8.05 | –
CCCS(=O)(=O)N1CCC[C@H]1C(=O)Nc1cc(C(C)(C)C)on1 [(S)-1-(Propane-1-sulfonyl)-pyrrolidine-2-carboxylic acid (5-tert-butyl-isoxazol-3-yl)-amide] | 120 | –
CC(C)(C)c1cc(NC(=O)[C@@H]2CCCN2CC2CCOC2)on1 (stereo partly drawn) [(S)-1-(Tetrahydro-furan-3-ylmethyl)-pyrrolidine-2-carboxylic acid (3-tert-butyl-isoxazol-5-yl)-amide] | 0.116 | –
CC(C)(C)c1cc(NC(=O)[C@@H]2CCCN2CC2CCCOC2)on1 (stereo partly drawn) [(S)-1-(Tetrahydro-pyran-3-ylmethyl)-pyrrolidine-2-carboxylic acid (3-tert-butyl-isoxazol-5-yl)-amide] | 0.376 | –
CC(C)(C)c1csc(NC(=O)[C@@H]2CCCN2C2CCOCC2)n1 [(S)-1-(Tetrahydro-pyran-4-yl)-pyrrolidine-2-carboxylic acid (4-tert-butyl-thiazol-2-yl)-amide] | 279 | –
O=C(Nc1nc2cc(Cl)c(Cl)cc2[nH]1)[C@@H]1CCCN1C1CCOCC1 [(S)-1-(Tetrahydro-pyran-4-yl)-pyrrolidine-2-carboxylic acid (5,6-dichloro-1H-benzimidazol-2-yl)-amide] | 165 | –
O=C(Nc1nc2cc(F)ccc2[nH]1)[C@@H]1CCCN1C1CCOCC1 [(S)-1-(Tetrahydro-pyran-4-yl)-pyrrolidine-2-carboxylic acid (5-fluoro-1H-benzimidazol-2-yl)-amide] | – | 391
CC(C)(C)Cc1cc(NC(=O)[C@@H]2CCCN2C2CCOCC2)on1 [(S)-1-(Tetrahydro-pyran-4-yl)-pyrrolidine-2-carboxylic acid [3-(2,2-dimethyl-propyl)-isoxazol-5-yl]-amide] | 14.9 | –
O=C(Nc1nc(-c2ccccc2)ns1)[C@@H]1CCCN1CC1CCOCC1 [(S)-1-(Tetrahydro-pyran-4-ylmethyl)-pyrrolidine-2-carboxylic acid (3-phenyl-1,2,4-thiadiazol-5-yl)-amide] | 40 | –
CC(C)(C)c1cc(NC(=O)[C@@H]2CCCN2CC2CCOCC2)on1 [(S)-1-(Tetrahydro-pyran-4-ylmethyl)-pyrrolidine-2-carboxylic acid (3-tert-butyl-isoxazol-5-yl)-amide] | 0.438 | –
CC(C)(C)c1csc(NC(=O)[C@@H]2CCCN2CC2CCOCC2)n1 [(S)-1-(Tetrahydro-pyran-4-ylmethyl)-pyrrolidine-2-carboxylic acid (4-tert-butyl-thiazol-2-yl)-amide] | 17.6 | –
O=C(Nc1nc2cc(Cl)c(Cl)cc2[nH]1)[C@@H]1CCCN1CC1CCOCC1 [(S)-1-(Tetrahydro-pyran-4-ylmethyl)-pyrrolidine-2-carboxylic acid (5,6-dichloro-1H-benzimidazol-2-yl)-amide] | 56.2 | –
O=C(Nc1nc2cc(Cl)ccc2[nH]1)[C@@H]1CCCN1CC1CCOCC1 [(S)-1-(Tetrahydro-pyran-4-ylmethyl)-pyrrolidine-2-carboxylic acid (5-chloro-1H-benzimidazol-2-yl)-amide] | 48.6 | –
O=C(Nc1nc2cc(Cl)ccc2s1)[C@@H]1CCCN1CC1CCOCC1 [(S)-1-(Tetrahydro-pyran-4-ylmethyl)-pyrrolidine-2-carboxylic acid (5-chloro-benzothiazol-2-yl)-amide] | – | 3.14
CCc1sc(NC(=O)[C@@H]2CCCN2CC2CCOCC2)nc1-c1ccccc1 [(S)-1-(Tetrahydro-pyran-4-ylmethyl)-pyrrolidine-2-carboxylic acid (5-ethyl-4-phenyl-thiazol-2-yl)-amide] | 10.9 | –
CC(C)(C)c1nnc(NC(=O)[C@@H]2CCCN2CC2CCOCC2)s1 [(S)-1-(Tetrahydro-pyran-4-ylmethyl)-pyrrolidine-2-carboxylic acid (5-tert-butyl-1,3,4-thiadiazol-2-yl)-amide] | 16.5 | –
O=C(Nc1ccc(C(F)(F)F)cn1)[C@@H]1CCCN1CC1CCOCC1 [(S)-1-(Tetrahydro-pyran-4-ylmethyl)-pyrrolidine-2-carboxylic acid (5-trifluoromethyl-pyridin-2-yl)-amide] | 212 | –

SMILES | EC50 [nM] | EC50 [1] [nM]
O=C(Nc1nc2ccc(Cl)cc2s1)[C@@H]1CCCN1CC1CCOCC1 [(S)-1-(Tetrahydro-pyran-4-ylmethyl)-pyrrolidine-2-carboxylic acid (6-chloro-benzothiazol-2-yl)-amide] | 188 | –
CC(C)(C)Cc1cc(NC(=O)[C@@H]2CCCN2CC2CCOCC2)on1 [(S)-1-(Tetrahydro-pyran-4-ylmethyl)-pyrrolidine-2-carboxylic acid [3-(2,2-dimethyl-propyl)-isoxazol-5-yl]-amide] | 3.46 | –
CC(C)(CO)c1cc(NC(=O)[C@@H]2CCCN2C2CCOCC2)on1 [(S)-1-(tetrahydro-pyran-4-yl)-pyrrolidine-2-carboxylic acid [3-(2-hydroxy-1,1-dimethyl-ethyl)-isoxazol-5-yl]-amide] | 50 | –
CC(C)(C)c1cc(NC(=O)[C@@H]2CCCN2C2CCC2)on1 [(S)-1-Cyclobutyl-pyrrolidine-2-carboxylic acid (3-tert-butyl-isoxazol-5-yl)-amide] | 6.28 | –
CC(C)(C)c1nnc(NC(=O)[C@@H]2CCCN2C2CCC2)s1 [(S)-1-Cyclobutyl-pyrrolidine-2-carboxylic acid (5-tert-butyl-1,3,4-thiadiazol-2-yl)-amide] | 255 | –
CC(C)(C)c1cc(NC(=O)[C@@H]2CCCN2CC2C=CCCC2)on1 (stereo partly drawn) [(S)-1-Cyclohex-2-enylmethyl-pyrrolidine-2-carboxylic acid (3-tert-butyl-isoxazol-5-yl)-amide] | 0.072 | –
CC(C)(C)c1cc(NC(=O)[C@@H]2CCCN2C2CCCCC2)on1 [(S)-1-Cyclohexyl-pyrrolidine-2-carboxylic acid (3-tert-butyl-isoxazol-5-yl)-amide] | 0.173 | –
CC(C)(C)c1nnc(NC(=O)[C@@H]2CCCN2C2CCCCC2)s1 [(S)-1-Cyclohexyl-pyrrolidine-2-carboxylic acid (5-tert-butyl-1,3,4-thiadiazol-2-yl)-amide] | 30 | –
CC(C)(C)c1cc(NC(=O)[C@@H]2CCCN2CC2CCCCC2)on1 [(S)-1-Cyclohexylmethyl-pyrrolidine-2-carboxylic acid (3-tert-butyl-isoxazol-5-yl)-amide] | 0.079 | –
CC(C)(C)c1cc(NC(=O)[C@@H]2CCCN2C2CCCC2)on1 [(S)-1-Cyclopentyl-pyrrolidine-2-carboxylic acid (3-tert-butyl-isoxazol-5-yl)-amide] | 2.39 | –
CC(C)(C)c1nnc(NC(=O)[C@@H]2CCCN2C2CCCC2)s1 [(S)-1-Cyclopentyl-pyrrolidine-2-carboxylic acid (5-tert-butyl-1,3,4-thiadiazol-2-yl)-amide] | 165 | –
CC(C)(C)Cc1cc(NC(=O)[C@@H]2CCCN2C2CCCC2)on1 [(S)-1-Cyclopentyl-pyrrolidine-2-carboxylic acid [3-(2,2-dimethyl-propyl)-isoxazol-5-yl]-amide] | 113 | –
CC(C)(C)c1cc(NC(=O)[C@@H]2CCCN2C2CC2)on1 [(S)-1-Cyclopropyl-pyrrolidine-2-carboxylic acid (3-tert-butyl-isoxazol-5-yl)-amide] | 3.19 | –
CC(C)(C)c1nnc(NC(=O)[C@@H]2CCCN2C2CC2)s1 [(S)-1-Cyclopropyl-pyrrolidine-2-carboxylic acid (5-tert-butyl-1,3,4-thiadiazol-2-yl)-amide] | – | 109
CC(C)(C)c1cc(NC(=O)[C@@H]2CCCN2CC2CC2)on1 [(S)-1-Cyclopropylmethyl-pyrrolidine-2-carboxylic acid (3-tert-butyl-isoxazol-5-yl)-amide] | 11.4 | –
CC(C)(C)c1nnc(NC(=O)[C@@H]2CCCN2CC2CC2)s1 [(S)-1-Cyclopropylmethyl-pyrrolidine-2-carboxylic acid (5-tert-butyl-1,3,4-thiadiazol-2-yl)-amide] | 340 | –
CC(C)(C)Cc1cc(NC(=O)[C@@H]2CCCN2CC2CC2)on1 [(S)-1-Cyclopropylmethyl-pyrrolidine-2-carboxylic acid [3-(2,2-dimethyl-propyl)-isoxazol-5-yl]-amide] | 22.3 | –
CC(C)N1CCC[C@H]1C(=O)Nc1cc(C(C)(C)C)no1 [(S)-1-Isopropyl-pyrrolidine-2-carboxylic acid (3-tert-butyl-isoxazol-5-yl)-amide] | 163 | –
CC(C)(C)c1cc(NC(=O)[C@@H]2CCCN2c2ncccn2)on1 [(S)-1-Pyrimidin-2-yl-pyrrolidine-2-carboxylic acid (3-tert-butyl-isoxazol-5-yl)-amide] | – | 109
CC(C)(C)c1cc(NC(=O)[C@]2(C)CCCN2c2ccc(C(F)(F)F)cc2)no1 [(S)-2-Methyl-1-(4-trifluoromethyl-phenyl)-pyrrolidine-2-carboxylic acid (5-tert-butyl-isoxazol-3-yl)-amide] | 0.199 | –

Reference: patent US8629157B2, “Pyrrolidine compounds which modulate the CB2 receptor” (Boehringer Ingelheim International GmbH, priority 2009, dated 2014)
